In brackets after ≈: the same amount, converted by molar mass. Where two headings read alike, the source gives them in different places.
Tests used:
PDC-88 = molecular target: T1, PDC-88 (Pseudomonas aeruginosa, UniProt P24735, DEL316-317/G27D/G391A/T105A/V205L/V356I); assay: Timed ESI-MS of acyl-enzyme formation, PDC-88; format: biochemical; conditions: timed ESI-MS, 1 to 30 min (ATM to 60 min)
T1 construct: NdeI 5′-[…]-3ʹ and BamHI 5ʹ-[…]-3ʹ; His tag removed) (N); made in house; host or cells: E. coli BL21-CodonPlus (DE3)-RP, pET24a(+)
Protocol: Timed ESI-MS experiments allow tracking of the reaction over time and determination of product modification, enabling the elucidation of mechanistic detail. Time courses were collected for both PDC-3 and PDC-88 with FEP (Fig. 4), CAZ (Fig. S1), TOL (Fig. S2), and ATM (Fig. S3). Substrate modification (here, loss of the R2 group) was determined based on differences between masses of apo and acyl-enzyme peaks (Fig. S4). […] Based on the differences in mass between the apo enzyme peaks, the acyl-enzyme peaks, and the molecular masses of each substrate, the mass of the adducts was determined and used to predict any portion of the substrate molecule that might be lost during the reaction (Fig. S4). As expected ([26][–][28]), all three cephalosporin antibiotics (FEP, CAZ, and TOL) lost their R2 groups during the reaction, while ATM (the sole monobactam) maintained its initial mass.
Five micrograms of PDC-3 or PDC-88 was incubated at the indicated molar ratio (1:2 to 1:100 PDC:β-lactam) in a total volume of 20 µL in 1× PBS at pH 7.4 at room temperature for the duration of the indicated time points. Reactions were quenched with the addition of 10 µL acetonitrile and added to 1 mL of 0.1% formic acid in water.
Data were collected using a Waters Synapt G2-Si quadrupole time-of-flight (Q-TOF) mass spectrometer and Waters Acquity UPLC BEH C18 1.7 µm column (2.1 by 100 mm). MassLynx V4.1 was used to deconvolute protein peaks. The tune settings for each sample were as follows: capillary voltage of 3.5 kV, sampling cone voltage of 35 V, source offset of 35 V, source temperature of 100°C, desolvation temperature of 500°C, cone gas flow rate of 100 L/h, desolvation gas flow rate of 800 L/h, and nebulizer bar at 6.0. Mobile phase A was 0.1% formic acid in water. Mobile phase B was 0.1% formic acid in acetonitrile. The mass accuracy of this system is ±5 Da.

[1] = system: E. coli DH10B/pTU626 (PDC-89); assay: Broth microdilution MIC, isogenic E. coli expressing PDC-89; format: cell-based; conditions: Escherichia coli
Protocol: (§1) Genetic constructs used for minimum inhibitory concentration (MIC) testing were designed by Venatorx Pharmaceuticals and codon-optimized for use in E. coli and synthesized by Twist Bioscience as described previously ([9]). […] DH10B cells expressing an empty pET24a(+) vector (Novagen) were also grown, and the plasmid purified. Both pCR4-TOPO-PDC-88 and empty pET24a(+) were cut with BamHI and NdeI, the digests run on low-melting point agarose gels, and the bands of interest excised and ligated to yield a PDC-88 expressing pET24a(+) construct with the His tag removed. The PDC-3 expression construct was created in a similar manner but starting with a previously described pBC SK(−) vector ([42]). The final plasmids were grown in E. coli DH10B cells and purified.
(§2) Modal broth microdilution MICs (or median broth microdilution MICs where appropriate) were determined in accordance with Clinical and Laboratory Standards Institute (CLSI) M07 guidelines ([43]). Isogenic E. coli DH10B cells expressing the abovementioned plasmid-encoded PDC constructs were used. […] CLSI quality control strains Escherichia coli NCTC 13353, E. coli ATCC 35218, and Klebsiella pneumoniae ATCC 700603 were used during testing ([24]).

[2] = system: E. coli DH10B/pTU609 (PDC-3); assay: Broth microdilution MIC, isogenic E. coli expressing PDC-3; format: cell-based; conditions: Escherichia coli
Protocol: as §1, §2

[3] = system: E. coli DH10B/pTU606 (PDC-1); assay: Broth microdilution MIC, isogenic E. coli expressing PDC-1; format: cell-based; conditions: Escherichia coli
Protocol: as §1, §2

[4] = system: E. coli DH10B/pTU625 (PDC-88); assay: Broth microdilution MIC, isogenic E. coli expressing PDC-88; format: cell-based, Escherichia coli; conditions: for MIC: Escherichia coli
Protocol: as §1, §2

[5] = system: E. coli DH10B/pTU629 (PDC-92); assay: Broth microdilution MIC, isogenic E. coli expressing PDC-92; format: cell-based; conditions: Escherichia coli
Protocol: as §1, §2

CO/N=C(\C(=O)N[C@@H]1C(=O)N2C(C(=O)[O-])=C(C[N+]3(C)CCCC3)CS[C@H]12)c1csc(N)n1 [FEP, cefepime]
acyl-enzyme complex formation and deacylation (PDC-88): formed an acyl-enzyme complex with FEP, followed by relatively quick deacylation | MIC ([1]; read-out: MIC FEP AVI): 0.25 µg/mL (≈ 0.52 µM) | MIC ([1]; read-out: MIC FEP TZB): 16 µg/mL (≈ 33.3 µM) | MIC ([1]; E. coli DH10B/pTU626 (PDC-89), FEP with TAN at constant 4 µg/mL, read-out: MIC FEP TAN): 0.25 µg/mL (≈ 0.52 µM) | MIC ([1]; E. coli DH10B/pTU626 (PDC-89), read-out: MIC FEP Alone): 32 µg/mL (≈ 66.6 µM) | MIC ([2]; read-out: MIC FEP AVI): 0.25 µg/mL (≈ 0.52 µM) | MIC ([2]; read-out: MIC FEP TZB): 2 µg/mL (≈ 4.16 µM) | MIC ([2]; E. coli DH10B/pTU609 (PDC-3), FEP with TAN at constant 4 µg/mL, read-out: MIC FEP TAN): 0.25 µg/mL (≈ 0.52 µM) | MIC ([2]; E. coli DH10B/pTU609 (PDC-3), read-out: MIC FEP Alone): 2 µg/mL (≈ 4.16 µM) | MIC ([3]; read-out: MIC FEP TZB): 2 µg/mL (≈ 4.16 µM) | MIC ([3]; E. coli DH10B/pTU606 (PDC-1), read-out: MIC FEP Alone): 2 µg/mL (≈ 4.16 µM) | MIC ([4]; read-out: MIC FEP AVI): 0.25 µg/mL (≈ 0.52 µM) | MIC ([4]; read-out: MIC FEP TZB): 16 µg/mL (≈ 33.3 µM) | MIC ([4]; E. coli DH10B/pTU625 (PDC-88), FEP with TAN at constant 4 µg/mL, read-out: MIC FEP TAN): 0.25 µg/mL (≈ 0.52 µM) | MIC ([4]; E. coli DH10B/pTU625 (PDC-88), read-out: MIC FEP Alone): 32 µg/mL (≈ 66.6 µM) | increase of cefepime MIC, PDC-88 compared to PDC-3 ([4]; {}): 16 fold | MIC ([5]; read-out: MIC FEP AVI): 0.5 µg/mL (≈ 1.04 µM) | MIC ([5]; read-out: MIC FEP TZB): 32 µg/mL (≈ 66.6 µM) | MIC ([5]; E. coli DH10B/pTU629 (PDC-92), FEP with TAN at constant 4 µg/mL, read-out: MIC FEP TAN): 0.25 µg/mL (≈ 0.52 µM) | MIC ([5]; E. coli DH10B/pTU629 (PDC-92), read-out: MIC FEP Alone): 64 µg/mL (≈ 133 µM)

— article PMC12217481, “Structure and mechanism of taniborbactam inhibition of the cefepime-hydrolyzing, partial R2-loop deletion Pseudomonas-derived cephalosporinase variant PDC-88” (Antimicrobial Agents and Chemotherapy, 2025)
